Results: patent US20170190671A1, “BIS(ARYL)CATECHOL DERIVATIVES AS HERBICIDES” (E I DU PONT DE NEMOURS AND COMPANY, priority 2014, published 2017)

What was measured:
Assay in all cases: Test C postemergence
Format in all cases: in vivo
[1] = test system: large (Lg) crabgrass (Digitaria sanguinalis); details: Digitaria sanguinalis, post-emergence, 336 h, Postemergence, scale 0 to 100, read-out: Plant response rating, Crabgrass, Large
Procedure, shortened: (§1)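 Treatment is preemergence to seeds in a loam and sand soil, or postemergence to plants 2 to 18 cm high in a peat moss-based medium. The compound is delivered in a non-phytotoxic solvent mixture including surfactant. Effects are judged by eye 13 to 15 days later on a 0 to 100 scale.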

[2] = test system: morningglory (Ipomoea coccinea); details: Ipomoea, post-emergence, 336 h, Postemergence, scale 0 to 100, read-out: Plant response rating, Morningglory
Procedure, shortened: as §1

[3] = test system: lambsquarters (Chenopodium album); details: Chenopodium album, post-emergence, 336 h, Postemergence, scale 0 to 100, read-out: Plant response rating, Lambsquarters
Procedure, shortened: as §1

[4] = test system: winter wheat (Triticum aestivum); details: Triticum aestivum, post-emergence, 336 h, Postemergence, scale 0 to 100, read-out: Plant response rating, Wheat
Procedure, shortened: as §1

[5] = test system: velvetleaf (Abutilon theophrasti); details: Abutilon theophrasti, post-emergence, Postemergence, scale 0 to 100, read-out: Plant response rating, Velvetleaf
Procedure, shortened: as §1

soybean (Glycine max) = details: Glycine max, post-emergence, Postemergence, scale 0 to 100, read-out: Plant response rating, Soybean
Procedure, shortened: as §1

[6] = test system: giant foxtail (Setaria faberii); details: Setaria faberi, post-emergence, 336 h, Postemergence, scale 0 to 100, read-out: Plant response rating, Foxtail, Giant
Procedure, shortened: as §1

[7] = test system: Italian ryegrass (Lolium multiflorum); details: Lolium multiflorum, post-emergence, 336 h, Postemergence, scale 0 to 100, read-out: Plant response rating, Ryegrass, Italian
Procedure, shortened: as §1

[8] = test system: ragweed (common ragweed, Ambrosia elatior); details: Ambrosia artemisiifolia, post-emergence, 336 h, Postemergence, scale 0 to 100, read-out: Plant response rating, Ragweed
Procedure, shortened: as §1

[9] = test system: oilseed rape (Brassica napus); details: Brassica napus, post-emergence, Postemergence, scale 0 to 100, read-out: Plant response rating, Oilseed Rape
Procedure, shortened: as §1

[10] = test system: johnsongrass (Sorghum halepense); details: Sorghum halepense, post-emergence, 336 h, Postemergence, scale 0 to 100, read-out: Plant response rating, Johnsongrass
Procedure, shortened: as §1

[11] = test system: blackgrass (Alopecurus myosuroides); details: Alopecurus myosuroides, post-emergence, 336 h, Postemergence, scale 0 to 100, read-out: Plant response rating, Blackgrass
Procedure, shortened: as §1

[12] = test system: barnyardgrass (Echinochloa crus-galli); details: Echinochloa crus-galli, post-emergence, Postemergence, scale 0 to 100, read-out: Plant response rating, Barnyardgrass
Procedure, shortened: as §1

corn (Zea mays) = details: Zea mays, post-emergence, 336 h, Postemergence, scale 0 to 100
Procedure, shortened: as §1

`N#Cc1cccc(Oc2ncc(Cl)cn2)c1Oc1ncc(Cl)cn1` [Compound 3, 2,3-bis[(5-chloro-2-pyrimidinyl)oxy]benzonitrile] gave a pest or weed control at 31 g/ha ([1]; 31 g ai/ha) of 10%, a pest or weed control at 62 g/ha ([1]; 62 g ai/ha) of 10% and a pest or weed control at 125 g/ha ([1]; 125 g ai/ha) of 15%. For the same compound, the pest or weed control at 250 g/ha ([1]; 250 g ai/ha) was 85%, the pest or weed control at 31 g/ha ([2]; 31 g ai/ha) was 85% and the pest or weed control at 62 g/ha ([2]; 62 g ai/ha) was 90%. The pest or weed control at 125 g/ha ([2]; 125 g ai/ha) was 90%, the pest or weed control at 250 g/ha ([2]; 250 g ai/ha) was 98% and the pest or weed control at 31 g/ha ([3]; 31 g ai/ha) was 85%. It also gave a pest or weed control at 62 g/ha ([3]; 62 g ai/ha) of 95%, a pest or weed control at 125 g/ha ([3]; 125 g ai/ha) of 95% and a pest or weed control at 250 g/ha ([3]; 250 g ai/ha) of 100%. It also gave a plant injury at 31 g/ha ([4]; 31 g ai/ha) of 0%, a plant injury at 62 g/ha ([4]; 62 g ai/ha) of 0% and a plant injury at 125 g/ha ([4]; 125 g ai/ha) of 10%. It also gave a plant injury at 250 g/ha ([4]; 250 g ai/ha) of 15%, a pest or weed control at 31 g/ha ([5]; 31 g ai/ha) of 35% and a pest or weed control at 62 g/ha ([5]; 62 g ai/ha) of 70%. It also gave a pest or weed control at 125 g/ha ([5]; 125 g ai/ha) of 70%, a pest or weed control at 250 g/ha ([5]; 250 g ai/ha) of 80% and a plant injury at 31 g/ha (soybean (Glycine max); 31 g ai/ha) of 85%. For the same compound, the plant injury at 62 g/ha (soybean (Glycine max); 62 g ai/ha) was 90%, the plant injury at 125 g/ha (soybean (Glycine max); 125 g ai/ha) was 95% and the plant injury at 250 g/ha (soybean (Glycine max); 250 g ai/ha) was 95%. It also gave a pest or weed control at 31 g/ha ([6]; 31 g ai/ha) of 5%, a pest or weed control at 62 g/ha ([6]; 62 g ai/ha) of 15% and a pest or weed control at 125 g/ha ([6]; 125 g ai/ha) of 15%. The pest or weed control at 250 g/ha ([6]; 250 g ai/ha) was 60%, the pest or weed control at 31 g/ha ([7]; 31 g ai/ha) was 5% and the pest or weed control at 62 g/ha ([7]; 62 g ai/ha) was 5%. For the same compound, the pest or weed control at 125 g/ha ([7]; 125 g ai/ha) was 5%, the pest or weed control at 250 g/ha ([7]; 250 g ai/ha) was 35% and the pest or weed control at 31 g/ha ([8]; 31 g ai/ha) was 50%. It also gave a pest or weed control at 62 g/ha ([8]; 62 g ai/ha) of 55%, a pest or weed control at 125 g/ha ([8]; 125 g ai/ha) of 60% and a pest or weed control at 250 g/ha ([8]; 250 g ai/ha) of 85%. It also gave a plant injury at 31 g/ha ([9]; 31 g ai/ha) of 50%, a plant injury at 62 g/ha ([9]; 62 g ai/ha) of 60% and a plant injury at 125 g/ha ([9]; 125 g ai/ha) of 70%. For the same compound, the plant injury at 250 g/ha ([9]; 250 g ai/ha) was 85%, the pest or weed control at 31 g/ha ([10]; 31 g ai/ha) was 15% and the pest or weed control at 62 g/ha ([10]; 62 g ai/ha) was 15%. For the same compound, the pest or weed control at 125 g/ha ([10]; 125 g ai/ha) was 15%, the pest or weed control at 250 g/ha ([10]; 250 g ai/ha) was 50% and the pest or weed control at 31 g/ha ([11]; 31 g ai/ha) was 20%. For the same compound, the pest or weed control at 62 g/ha ([11]; 62 g ai/ha) was 20%, the pest or weed control at 125 g/ha ([11]; 125 g ai/ha) was 30% and the pest or weed control at 250 g/ha ([11]; 250 g ai/ha) was 30%. It also gave a pest or weed control at 31 g/ha ([12]; 31 g ai/ha) of 5%, a pest or weed control at 62 g/ha ([12]; 62 g ai/ha) of 10% and a pest or weed control at 125 g/ha ([12]; 125 g ai/ha) of 20%. The pest or weed control at 250 g/ha ([12]; 250 g ai/ha) was 60%, the Corn plant response rating (crop injury, 0 = no effect, 100 = complete kill) at 31 g/ha (corn (Zea mays); 31 g ai/ha) was 10% and the Corn plant response rating (crop injury, 0 = no effect, 100 = complete kill) at 62 g/ha (corn (Zea mays); 62 g ai/ha) was 35%. For the same compound, the Corn plant response rating (crop injury, 0 = no effect, 100 = complete kill) at 250 g/ha (corn (Zea mays); 250 g ai/ha) was 75%.
